{"source": "ChEMBL document CHEMBL5725708", "about": "“Amide derivatives and pharmaceutically acceptable salts thereof, preparation method thereof and medicinal application thereof” (2018)", "target": "T1, Prostaglandin E synthase (Homo sapiens, UniProt O14684)", "T1 sequence (O14684 whole entry)": "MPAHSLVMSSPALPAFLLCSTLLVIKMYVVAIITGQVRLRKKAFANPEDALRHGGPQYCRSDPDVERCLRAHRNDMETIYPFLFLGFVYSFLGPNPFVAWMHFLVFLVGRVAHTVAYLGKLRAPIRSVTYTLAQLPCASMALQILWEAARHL", "assay": "mPGES1 enzyme assay: mPGES1 was diluted with assay buffer and added into plate at 49 μL/well supplemented with 1 μL of compound (the final concentration of each compound at seven gradient concentrations was 10000 nM, 1000 nM, 100 nM, 10 nM, 1 nM, 0.1 nM and 0.01 nM). Each well was added with 3.8 μL of 20 μg/mL PGH precooled on ice after shaking for 30 seconds and incubated for 7 minutes on ice. Then, each well was added with 53.8 μL of 6 mg/mL SnCl2 to quench the reaction. The sample was diluted with dilute buffer at 1:400. 10 μl of diluted sample, 5 μL PGE2-d2 and 5 μL anti-PGE2 Cryptate were added to a black 384-well plate, and incubated at 4° C. overnight. HTRF was determined using Flexstation, and the IC50 of the compounds was obtained by data processing software.", "data": [{"smiles": "CCn1c(-c2ccc(F)cc2)cc2cc(NC(=O)c3cc(CNC(=O)C(C)(C)C)ccc3Br)ccc21", "values": [{"measurement": "IC50", "result": 6.02, "unit": "nM"}]}]}
